Where two headings read alike, the source gives them in different places.
Columns and labels:
[1] = biological target: T1, m4 subtype receptors (PC12 cells) (Rattus norvegicus, UniProt P08485); test: Inhibition of adenylate cyclase activity in PC12 cells; format: cell-based; conditions: for EC50: PC12 m4, AC activity; for AC (adenylate cyclase activity): PC12 m4, tested at 1mM
T1 construct: endogenous in cells; host or cells: PC12 cells
T1 sequence (P08485 1-478): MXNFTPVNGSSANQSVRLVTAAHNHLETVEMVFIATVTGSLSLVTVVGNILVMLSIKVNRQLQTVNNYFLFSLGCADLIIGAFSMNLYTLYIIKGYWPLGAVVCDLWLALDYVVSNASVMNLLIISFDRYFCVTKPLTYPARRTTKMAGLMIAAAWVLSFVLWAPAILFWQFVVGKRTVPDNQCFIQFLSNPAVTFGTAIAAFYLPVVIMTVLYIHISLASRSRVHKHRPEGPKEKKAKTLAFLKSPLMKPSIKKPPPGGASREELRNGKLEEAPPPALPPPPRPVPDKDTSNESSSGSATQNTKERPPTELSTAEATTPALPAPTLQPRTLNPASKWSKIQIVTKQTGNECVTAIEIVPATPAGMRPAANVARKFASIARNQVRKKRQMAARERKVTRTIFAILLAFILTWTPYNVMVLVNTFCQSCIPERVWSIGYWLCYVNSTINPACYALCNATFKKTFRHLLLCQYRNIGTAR
Method: The new compounds AF150, AF151, AF150(S) and AF125 were assayed for their ability to stimulate PI in CHO cells transfected with m1 and m3 receptors, respectively (Buck and Fraser, loc cit), and in cultured human neuroblastoma cells, line SK-N-SH, which express mainly the m3 subtype, but not the m1 subtype (Pinkas-Kramarski et al, Neurosci. Lett. 188: 335-340, 1990; Luthin et al Mol. Pharmacol. 34: 327-333, 1988). These compounds were also assayed on cultured PC12 cells which express mainly m4 subtype receptors and are coupled to inhibition of AC activity (Pinkas-Kramarski et al, loc cit).
Stimulation of PI breakdown was assayed using the method described by Stein et al (EMBO J. 7: 3031-3035, 1988), and modulation of AC activity was assayed by the method of Stein et al, loc cit and Pinkas-Kramarski et al (FEBS Lett., 239: 174-178, 1988). […]

m1 receptors = biological target: T2, m1 receptors (Rattus norvegicus, UniProt P08482); test: PI hydrolysis in CHO cells transfected with m1 receptors; format: cell-based; conditions: for EC50: CHO m1, PI hydrolysis; for PI (phosphoinositides hydrolysis): tested at 1mM
T2 construct: expressed in transfected cells; host or cells: CHO cells
T2 sequence (P08482 1-460): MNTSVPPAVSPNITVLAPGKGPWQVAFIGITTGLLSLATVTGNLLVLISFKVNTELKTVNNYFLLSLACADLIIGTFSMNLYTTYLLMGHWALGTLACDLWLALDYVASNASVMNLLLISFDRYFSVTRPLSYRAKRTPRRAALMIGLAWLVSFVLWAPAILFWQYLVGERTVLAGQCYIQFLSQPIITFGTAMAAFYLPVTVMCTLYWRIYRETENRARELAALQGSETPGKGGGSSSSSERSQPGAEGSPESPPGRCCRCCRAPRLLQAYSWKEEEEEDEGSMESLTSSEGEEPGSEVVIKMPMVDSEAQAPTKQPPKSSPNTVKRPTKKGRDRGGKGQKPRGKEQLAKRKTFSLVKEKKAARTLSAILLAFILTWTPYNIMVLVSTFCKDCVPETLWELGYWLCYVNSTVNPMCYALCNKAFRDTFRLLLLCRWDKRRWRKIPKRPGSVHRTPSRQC

M1 muscarinic receptor [2] = biological target: T3, M1 muscarinic receptor (Rattus norvegicus, UniProt P08482); test: Displacement of 3H-PZ from cortical binding sites, Tris/Mn buffer, with and without GppNHp; parameters: from tissue; host or cells: rat cerebral cortex homogenates; conditions: for KL-G / KH-G: ratio of low and high affinities without GppNHp
T3 sequence (P08482 1-460): T2 sequence (P08482 1-460)
Excerpt: The binding of agonists to M1 muscarinic receptors and the effect of guanylyl imidophosphate (GppNHp). Agonists are known to be coupled with guanine nucleotide binding proteins (G proteins).
Non-hydrolyzable guanine nucleotides such as GppNHp dissociate the G protein from the receptor and decrease the affinity of the receptor for agonists but not for antagonists. […] Molec.
Under these conditions agonists of high efficacy ("full agonists") bind directly to the M1 receptor subtype with two affinities. […] The ratio of low and high affinities (KL/KH) of the M1 receptor may predict the relative efficacies of agonists to activate putative M1 receptor-mediated second messenger systems.
KH, KL, %H and %L are the apparent inhibition constants of the tested ligands for the high and low affinity sites, respectively. G is GppNHp (guanylyl imidodiphosphate), and was used in 0.1 mM concentration. Displacement of ^3H-PZ from cortical binding sites was performed in Tris/Mn buffer (pH 7.4) for one hour at 25°C; the buffer included 1 mM EDTA and 2mM Mn^++ ions. […] The binding data were analyzed using a GraphPAD program and were fitted to one or two components. Values are means from 1-3 experiments carried out in triplicates.

[3] = test system: rat cerebral cortex synaptosomes; test: Synaptosomal 3H-ACh release, basal and K+-evoked
Excerpt: The effects of AF150 (and for comparison purposes, AF125, MeN-A-343 and oxotremorine) on basal- and K^+-evoked release of ^3H-ACh were studied on synaptosomes prepared from rat cerebral cortex using the methods described in detail by Pittel et al (J. Neurochem., 55: 665-672, 1990). […] On the other hand, the action of AF150 on presynaptic muscarinic receptors, causing an increase in K^+-evoked ACh release, can be considered either as an M2 antagonistic or an M1 agonistic effect. […] The existence of muscarinic autoreceptors that increase ACh release was manifested also in the PNS in smooth muscle preparation (Kilbinger and Nafziger, Naunyn Schmiedebergs Arch. Pharmacol. 328: 304-309, 1985).

M1 muscarinic receptor [4] = biological target: T3, M1 muscarinic receptor; test: Potentiation of AC activity (basal and forskolin-stimulated cAMP) via m1 receptors; format: cell-based; parameters: expressed in transfected cells; host or cells: CHO cells
Excerpt: Stimulation of m1 and m3 receptors elicit dose-dependent increases in the hydrolysis of phosphoinositides (PI). Agonist activation of the m1 receptor also elicits increases in basal and forskolin-stimulated cAMP, whereas the m3 receptor has no effect on intracellular cAMP levels (Buck and Fraser, Biochem. Biophys. Res. Comm. 173: 662-672, 1990). Stimulation of the m2 and m4 receptors by muscarinic agonists leads to preferential inhibition of adenylate cyclase (AC) activity (Mei et al, Life Sciences, 45: 1831-1851, 1989).

[5] = +G (0.1 mM GppNHp), read-out: KL
[6] = -G (without GppNHp), read-out: KH
[7] = +G (0.1 mM GppNHp), read-out: KH

CC1=NCC2(CCN(C)CC2)O1 [AF150, 2-Methyl-spiro(1,3-oxazoline-5,4')-1'-methylpiperidine]
EC50 [1]: 1 µM
AC (adenylate cyclase activity) [1]: +++
EC50 (m1 receptors): 13 µM
PI (phosphoinositides hydrolysis) (m1 receptors; CHO m1): +++
%L (M1 muscarinic receptor [2]; +G (0.1 mM GppNHp)): 100%
Ki (M1 muscarinic receptor [2]; [5]): 21 µM
% H (M1 muscarinic receptor [2]; -G): 21%
%L (M1 muscarinic receptor [2]; -G): 83%
Ki (M1 muscarinic receptor [2]; [6]): 0.11 µM
Ki (M1 muscarinic receptor [2]; -G, read-out: KL): 11 µM
KL-G / KH-G (M1 muscarinic receptor [2]): 100
Basal 3H-ACh release ([3]; 0.1 mM): 121%
K+-evoked 3H-ACh release ([3]; 0.1 mM): 110%
K+-evoked 3H-ACh release ([3]; 1.0 mM): 115±4 (6) p<0.01%
increase in basal cAMP (M1 muscarinic receptor [4]): 33%
increase in forskolin-stimulated cAMP (M1 muscarinic receptor [4]): 76%

CC1=NC2(CCN(C)CC2)CO1 [AF151, 1-methylpiperidine-4-spiro-4'-(2'-methyl-1',3'-oxazoline)]
EC50 [1]: 1 µM
AC (adenylate cyclase activity) [1]: +++
EC50 (m1 receptors): 54 µM
PI (phosphoinositides hydrolysis) (m1 receptors; CHO m1): +++
% H (M1 muscarinic receptor [2]; +G (0.1 mM GppNHp)): 17%
%L (M1 muscarinic receptor [2]; +G (0.1 mM GppNHp)): 83%
Ki (M1 muscarinic receptor [2]; [7]): 4.6 µM
Ki (M1 muscarinic receptor [2]; [5]): 59 µM
% H (M1 muscarinic receptor [2]; -G): 39%
%L (M1 muscarinic receptor [2]; -G): 61%
Ki (M1 muscarinic receptor [2]; [6]): 3.7 µM
Ki (M1 muscarinic receptor [2]; -G, read-out: KL): 4.8 µM
KL-G / KH-G (M1 muscarinic receptor [2]): 13
increase in basal cAMP (M1 muscarinic receptor [4]): 33%
increase in forskolin-stimulated cAMP (M1 muscarinic receptor [4]): 76%

CC1=NCC2(CN3CCC2CC3)O1 (racemic) [AF125, 2-Methyl-spiro(1,3 oxazoline-5,3')quinuclidine]
PI, % of carbachol effect (m1 receptors; CHO m1): 14%
Ki (M1 muscarinic receptor [2]; [7]): 9 µM
Ki (M1 muscarinic receptor [2]; [5]): 12 µM
Ki (M1 muscarinic receptor [2]; [6]): 9 µM
Ki (M1 muscarinic receptor [2]; -G, read-out: KL): 12 µM
K+-evoked 3H-ACh release ([3]; 1.0 mM): 78±9 (2) %
